Test results: article PMC11050532, “The Inhibition Activity of Natural Methoxyflavonoid from Inula britannica on Soluble Epoxide Hydrolase and NO Production in RAW264.7 Cells” (International Journal of Molecular Sciences, 2024)

Assays:
sEH [1] = target: T1, sEH (Homo sapiens, UniProt P34913); test: sEH activity assay (PHOME fluorescence); format: biochemical; details: triplicate, six concentrations
T1 construct: purchased Cayman Chemical 10011669
T1 sequence (P34913 1-555): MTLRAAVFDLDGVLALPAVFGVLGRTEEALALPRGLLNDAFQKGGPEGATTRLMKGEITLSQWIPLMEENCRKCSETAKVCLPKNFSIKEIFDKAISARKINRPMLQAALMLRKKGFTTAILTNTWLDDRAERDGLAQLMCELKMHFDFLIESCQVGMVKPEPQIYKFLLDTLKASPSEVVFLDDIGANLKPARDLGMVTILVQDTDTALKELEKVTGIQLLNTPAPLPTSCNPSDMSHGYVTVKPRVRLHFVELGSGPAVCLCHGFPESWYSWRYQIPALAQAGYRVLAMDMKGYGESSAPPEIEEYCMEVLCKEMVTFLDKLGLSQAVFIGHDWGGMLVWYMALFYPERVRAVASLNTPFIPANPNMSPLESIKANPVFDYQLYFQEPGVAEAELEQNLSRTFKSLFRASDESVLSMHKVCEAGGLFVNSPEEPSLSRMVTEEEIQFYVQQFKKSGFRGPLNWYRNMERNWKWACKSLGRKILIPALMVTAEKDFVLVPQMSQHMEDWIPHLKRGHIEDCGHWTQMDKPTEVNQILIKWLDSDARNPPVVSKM
Experimental: ^1H (400 MHz) and ^13C (100 MHz) nuclear magnetic resonance (NMR) spectra were obtained using a Bruker DRX-400 spectrometer (Bruker, Billerica, MA, USA) with tetramethylsilane as the internal standard. Thin-layer chromatography (TLC) was performed on pre-coated silica gel 60 F254 (0.25 mm; Merck, Rahway, NJ, USA) and reversed-phase-18 F254s plates (0.25 mm; Merck). Column chromatography was performed using a silica gel (60 A, 70–230, or 230–400 mesh ASTM; Merck, Germany) and reversed-phase silica gel (ODS-A, S-75 μm; YMC, Kyoto, Japan). […] Greiss reagent and lipopolysaccharide (LPS) were purchased from Sigma-Aldrich (St. Louis, MO, USA). Dulbecco’s modified Eagle medium (DMEM) and fetal bovine serum were purchased from Gibco (Grand Island, NY, USA). Penicillin/streptomycin antibiotics came from Invitrogen (Carlsbad, CA, USA).
Inhibitor efficiency (%) was calculated as shown in Equation (1):Inhibitory activity = 100 − [(I4_0 − I0)/(M40 − M0)] × 100(1) where I40 and M40 are the fluorescence of the candidate inhibitor (I) and methanol (M) after 40 min, and I0 and M0 are the fluorescence of I and M at 0 min, respectively.

[2] = test system: NO production by poly(I:C)-induced RAW264.7 cells; test: Nitric oxide assay (Griess method); format: cell-based; details: for NO production: 10 µM compound, induced control 19.0 ± 1.5 µM, unstimulated ~0.91 µM; for inhibition at 10 µM: Mus musculus, RAW264.7, poly(I:C)-stimulated cells
Experimental: The activity of compounds 1–5 with respect to NO production by poly(I:C)-induced RAW264.7 cells was evaluated by measuring the amount of nitrite that accumulated in the culture medium using the Griess method. When tested at a concentration 10 µM, none of the compounds affected the viability of RAW264.7 cells. In unstimulated RAW264.7 cells, NO production was ~ 0.91 µM, whereas in poly(I:C)-induced cells, it was 19.0 ± 1.5 µM. In induced cells simultaneously treated with compounds 1–5 at a concentration of 10 µM, NO production was 12.5 ± 0.1, 9.6 ± 0.2, 4.0 ± 0.2, 7.0 ± 0.3, and 13.9 ± 0.8 µM, respectively (Figure 5).
RAW264.7 macrophages were initially cultured as described above and then pretreated for 2 h with 10 µM of the candidate inhibitor. Then, they were stimulated with 1 µg LPS /mL for 24 h. Then, 100 µL each of supernatant and Griess reagent were added to the plate. The absorbance at 450 nm was measured as described.

sEH [3] = target: T1, sEH; test: sEH enzyme kinetics (Lineweaver–Burk and Dixon plots); format: biochemical; details: for Ki: calculated from the Dixon plot; for Binding Mode: substrate 3.1–50 µM, Lineweaver–Burk plot
Experimental: Determinations of enzyme kinetics yield insights into the interactions between inhibitors and enzymes. In such studies, the changes in the initial velocity (v0) of the enzymatic reaction induced by the inhibitor depending on the substrate concentration are monitored. To investigate the effects of the five flavonoids (1–5) on sEH, a substrate concentration of 3.1–50 µM was used. […] The ki values calculated from the Dixon plot were 43.9, 19.8, 17.5, 63.5, and 68.7 µM, respectively (Figure 2G–K).
In 96-well plates, 20 µL of isolated compounds […] in methanol was mixed with 100 µL of 25 mM Tris–HCl (pH 7.0) buffer containing 0.1% BSA, followed by adding 30 µL of 1.0 µg/mL sEH and then 50 µL of 40 μM PHOME. The reaction product was measured using a fluorescent photometer (excitation filter: 330 nm, emission filter: 465 nm).

sEH [4] = details: cited from earlier work; for inhibition mode: sEH
[5] = test system: mice with angiotensin-II-induced hypertension; set-up: method as in PMID 15699457; details: cited from earlier work
[6] = set-up: method as in PMID 23020295; details: cited from earlier work
[7] = test system: LPS-activated THP-1 cells; set-up: method as in PMID 27177082; details: cited from earlier work
arthritic rats = test system: arthritic rats; set-up: method as in PMID 27177082; details: cited from earlier work

Row | Compound | IC50 (sEH [1]) | NO production [2] | Ki (sEH [3]) | Binding Mode (sEH [3]) | other results
1 | COc1cc(-c2oc3cc(O)cc(O)c3c(=O)c2OC2OC(CO)C(O)C(O)C2O)ccc1O (stereo not shown) [Compound 5, isorhametin-3-O-glucoside] | 62.8 ± 1.8 µM | 13.9 ± 0.8 µM | 68.7 µM | non-competitive | Binding Mode (sEH [3]; listed as isorhametin-3-O-glucoside): noncompetitive
2 | O=c1cc(-c2ccc(O)c(O)c2)oc2cc(O[C@@H]3O[C@H](CO)[C@@H](O)[C@H](O)[C@H]3O)cc(O)c12 [luteolin-7-O-glucopyranoside] | – | – | – | – | inhibition mode (sEH [4]): non-competitive
3 | COc1cc(-c2cc(=O)c3c(O)cc(O)cc3o2)ccc1O [chrysoeriol] | – | – | – | – | inhibition mode (sEH [4]): non-competitive
4 | O=c1c(O)c(-c2ccc(O)cc2)oc2cc(O)cc(O)c12 [kaempferol] | – | – | – | – | sEH inhibition (in words) (sEH [4]): potent sEH inhibitors
5 | COc1ccc(-c2oc3cc(OC)c(OC)c(O)c3c(=O)c2O)cc1O [Compound 1, eupatin] | 42.6 ± 0.8 µM | 12.5 ± 0.1 µM | 43.9 µM | non-competitive | Binding Mode (sEH [3]; listed as eupatin): noncompetitive
6 | COc1c(O)cc2oc(-c3ccc(O)c(O)c3)cc(=O)c2c1O [Compound 4, nepetin] | 40.9 ± 0.6 µM | 7.0 ± 0.3 µM | 63.5 µM | non-competitive | inhibition at 10 µM [2]: > 50%; Binding Mode (sEH [3]; listed as nepetin): noncompetitive
7 | COc1c(O)cc2oc(-c3ccc(O)cc3)cc(=O)c2c1O [Compound 2, hispidulin] | 22.2 ± 0.3 µM | 9.6 ± 0.2 µM | 19.8 µM | non-competitive | Binding Mode (sEH [3]; listed as hispidulin): noncompetitive
8 | O=C(O)CCCCCCCCCCCNC(=O)NC12CC3CC(CC(C3)C1)C2 [AUDA, 12-(3-adamantan-1-yl-ureido) dodecanoic acid] | – | – | – | – | blood pressure [5]: effective for lowering blood pressure; metabolism in vivo [6]: rapid metabolism in vivo
9 | C=C(C)[C@@H](O)[C@@H](O)C[C@@H](C)C1=C2CC[C@H]3[C@@]4(C)CCC(=O)C(C)(C)[C@@H]4CC[C@]3(C)[C@@]2(C)CC1 [11-deoxy-25-anhydroalisol E] | – | – | – | – | sEH inhibition (in words) (sEH [4]): considerable inhibitory effects on sEH
10 | COc1c(O)cc2oc(-c3ccc(O)c(O)c3)c(O)c(=O)c2c1O [Compound 3, patuletin] | 12.1 ± 0.1 µM | 4.0 ± 0.2 µM | 17.5 µM | non-competitive | TNF-α and IL-1β levels [7]: decrease TNF-α and IL-1β levels; TNF-α and IL-1β levels (arthritic rats): decrease TNF-α and IL-1β levels; inhibition at 10 µM [2]: > 50%; Binding Mode (sEH [3]; listed as patuletin): noncompetitive
11 | O=c1c(O)c(-c2ccc(O)c(O)c2)oc2cc(O)cc(O)c12 [quercetin] | – | – | – | – | sEH inhibition (in words) (sEH [4]): potent sEH inhibitors
12 | COc1cc(-c2oc3cc(O[C@@H]4O[C@H](CO)[C@@H](O)[C@H](O)[C@H]4O)cc(O)c3c(=O)c2O)ccc1O [isorhamnetin-7-O-glucopyranoside] | – | – | – | – | inhibition mode (sEH [4]): non-competitive
